Assay results published in PubChem BioAssay AID179 (DTP/NCI, 2004).
Where “and” joins values, the source holds several entries; their conditions need not be identical. Identical values can stand only once. Calls of active or inactive are those of the source.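 The calls were made as follows: active = compounds giving half or more protection of infected cells from virus-caused growth loss, again on retest; inactive = the rest.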 Where a SMILES comes first, the peptide text is derived from it.

System: CEM cells HIV-1 protection, formazan growth assay
Experiment: NCI AIDS Antiviral Assay
Settings: for IC50: measured here: growth of uninfected CEM cells
How it was run: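 CEM (human) cells, HIV-1 infected vs uninfected, 5-point dosing, formazan growth read-out. Retest threshold 50% protection.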

Structure (SMILES)	EC50 [µM]	IC50	outcome
C/C(NNC(=O)c1ccccc1O)=C1\C=Nc2ccccc2S1	> 15.8	0.0794 µM	–
COc1ccccc1NC(=O)/C(=C/c1ccccc1)C(C)=O	> 24.5	18.6 µM	–
CCCc1cc(=O)oc2c3c(c4c(c12)OC(C)(C)C=C4)O[C@H](C)[C@@H](C)[C@H]3O	> 58.9	17.8 µM	–
COc1cc2nncc(SC)c2cc1OC	> 91.2	72.4 µM	–
CC1(C)O[C@H]2OC3CCC(=O)CC3(O)[C@H]2O1 (stereo not given in full)	–	–	inactive
Cn1cnc([N+](=O)[O-])c1Sc1nccc(=O)[nH]1	> 977	> 200 µM	–
Cc1cc2c(cc1C)NC(=O)CC(=O)N2	> 200	> 200 µM	–
COc1ccc(-n2c(N)c(C#N)c3c(c2=S)CCC3)cc1	> 316	> 316 µM	–
CCCCCCOP(=O)(OCCCCCC)OC(C(=O)OC)C(F)(F)F (stereo not given)	> 200	44.7 µM	–
O=C1NC23C4C5C6C4C2(N1)C6C53 (stereo not given)	> 1550	891 µM	–
CON[N+]([O-])=NC(C)C	195	> 200 µM	–
CC12C=NNC1(C)C(=O)C1(C)CN=NC1(C)C2=O (stereo not given)	> 200	> 200 µM	–
Cc1ncc([N+](=O)[O-])n1CCNC(=O)Cn1ccnc1[N+](=O)[O-]	> 200	> 200 µM	–
N#Cc1c(N=Cc2ccccc2)c(C(=O)Nc2ccccc2)n2c1CCCC2	> 200	> 200 µM	–
COC(=O)c1ccc2c(c1)CC1(C2)Cc2ccc3c(c2C1)CCC3 (stereo not given)	> 200	> 200 µM	–
CC(=O)N1CCc2cc(S(C)(=O)=O)c3c(c21)CCC3	–	–	inactive
Cc1nc(N)c2nc(Nc3ccccc3)sc2n1	> 141	66.1 µM	–
O=c1[nH]c2ccccc2nc1/C=C(\O)c1ccccc1O	> 13.5	> 13.5 µM	–
Cn1c(=O)n2n(c1=O)C1(CCO)CCC2(CCO)CC1	> 331	> 331 µM	–
CN1CCN(c2cc3c(cc2F)c(=O)c(C(=O)O)cn3C2CC2)CC1CC#N (stereo not given)	> 200	148 µM	–
COc1ccc(C(O)C/[N+]([O-])=C/c2ncc([N+](=O)[O-])n2C)cc1 (stereo not given)	–	–	inactive
O=C(O)[C@@H]1CCC(=O)N1C(c1ccc2c(c1)OCO2)c1ccc2c(c1)OCO2	> 200	> 200 µM	–

Structure (SMILES)	EC50 [µM]	IC50	outcome
CCOC(=O)c1cnc2[nH]ccn2c1=O	> 200	> 200 µM	–
O=S(=O)(c1ccccc1)C1CN2OC1(S(=O)(=O)c1ccccc1)CC2c1ccc(Br)cc1 (stereo not given)	–	–	inactive
CCSC1=N/C(=C/c2ccccc2O)C(=O)N1	> 200	123 µM	–
CC(C)CC(NC(=O)CNC(=O)C(CC(C)C)NC(=O)C(Cc1c[nH]cn1)NC(=O)C(CC(N)=O)NC(=O)C1CCCN1C(=O)C(C)NC(=O)C(Cc1ccc(O)cc1)NC(=O)C(C)NC(=O)C1CCCN1C(=O)C(CCC(=O)O)NC(=O)C(CC(=O)O)NC(=O)C(Cc1ccccc1)NC(=O)C(CC(N)=O)NC(=O)C(C)N)C(=O)O (stereo not given) (H-ANFDEPAYAPNHLGL-OH; configuration not given here)	> 38	> 38 µM	–
CNC(=O)OCc1cnc([N+](=O)[O-])n1C	> 200	> 200 µM	–
COc1cccc(/S(C)=N/S(=O)(=O)c2ccc(C)cc2)c1 (stereo not given)	> 776	214 µM	–
Cn1c(=O)nc2n(-c3cc(Cl)ccc3Cl)c3ccccc3nc-2c1=O	–	–	inactive
CC1=Nc2ccccc2S/C1=C1/C=NC(=NC#N)N=C1C(=O)Nc1cccc(Cl)c1	> 83.2	> 83.2 µM	–
CCN(CCCN(CC)C(=O)N[C@@H](Cc1ccccc1)C(=O)NC)C(=O)N[C@@H](Cc1ccccc1)C(=O)NC	> 200	> 200 µM	–
CCCCC1(C(=O)OCC)OC12CCCCC2 (stereo not given)	> 200	> 200 µM	–
C=CC(C)(CC/C=C(\C)CCC=C(C)C)c1cc(O)c(O)c(-c2cc(C(C)(C=C)CC/C=C(\C)CCC=C(C)C)cc(O)c2O)c1 (stereo not given)	> 5.75	> 5.75 µM	–
CON1C(=O)C2(CCCCC2)C(=O)C12C=CC(C)CC2 (stereo not given)	> 162	> 162 µM	–
O=C1c2c(ccc3c2CCCC3)CC12Cc1ccc3c(c1C2=O)CCCC3	> 200	> 200 µM	–
CC1(C)OC(=O)C(=Cc2cccc(Cl)c2)C(=O)O1	> 490	> 200 µM	–
O=C(O)C1[C@@H](C(=O)O)C1(Br)CBr (stereo not given in full)	> 200	> 200 µM	–
CC(C)Cc1cccc(C(C)C)c1NC(=O)CCC(=O)N/N=C1\C(=N/NC(=O)CCC(=O)Nc2c(C(C)C)cccc2C(C)C)C(c2ccc3c(c2)OCO3)Oc2ccccc21 (stereo not given)	> 112	81.3 µM	–
CCOP(=O)(OCC)/C(C#N)=C/c1cccn1CC(C)C	60.3	123 µM	–
Cc1cccc(C(C)C)c1NC(=O)CC1Sc2ccccc2NC1=O (stereo not given)	> 20.4	–	–
CC(C)(C)n1c(=O)[nH]n(C2NN=Cc3cccc4cccc2c34)c1=O (stereo not given)	> 200	24 µM	–
CC(C)(C)c1cc(S(=O)(=O)O)c2oc(-c3ccccc3)cc(=O)c2c1	> 200	> 200 µM	–
Nc1nc2nc3c(nc2c(=O)[nH]1)CN(C1CCCCC1)C3=O	> 74.1	> 74.1 µM	–
C/C(=N\N=C(/[O-])c1ccncc1)c1cccc(/C(C)=N/N=C(\[O-])c2ccncc2)n1.O.[Cu+2]	> 200	2.24 µM	–

Structure (SMILES)	EC50 [µM]	IC50	outcome
O=C(CP(=O)(c1ccccc1)c1ccccc1)c1cccc(C(=O)CP(=O)(c2ccccc2)c2ccccc2)c1	> 200	158 µM	–
O=S(Nc1ccccc1)c1ccccc1Oc1ccccc1 (stereo not given)	–	–	inactive
CCN(CC)C(=O)SCCSC(=O)N(CC)CC	> 100	> 100 µM	–
C=CCC1(c2ccc(OC)cc2)C=CC(=O)CC1 (stereo not given)	> 282	79.4 µM	–
OC1(c2ccc(Cl)cc2)c2ccccc2C2=Nc3ccccc3CN21 (stereo not given)	> 200	115 µM	–
O=S1c2ccc(Cl)cc2CC(SSC2Cc3cc(Cl)ccc3S(=O)c3ccccc32)c2ccccc21 (stereo not given)	> 4.68	> 4.68 µM	–
COc1ccc(-c2c(C)c(C)nc(Cl)c2C#N)c(OCc2ccccc2)c1OC	–	–	inactive
O=C(NNCC(F)(F)F)c1ccncc1	> 200	30.2 µM	–
C=CCCCN1C(=O)C2C3c4ccccc4C(C=O)(c4ccccc43)C2C1=O (stereo not given)	> 200	7.24 µM	–
SCc1ccc(-c2ccc(CS)cc2)cc1	> 4.27	> 4.27 µM	–
CC(C)C(=O)/C=C/c1c(Cl)cccc1Cl	–	–	inactive
COc1ccc(N2C(=O)C3c4[nH]c5ccccc5c4C4CCC(C(C)(C)C)CC4C3C2=O)cc1OC (stereo not given)	> 2.14	> 2.14 µM	–
COc1cc(OC)c(NC2=NCCO2)cc1Cl	> 200	13.5 µM	–
Oc1c(N2CCCCC2)cc(-c2cc(N3CCCCC3)c(O)c3ccccc23)c2ccccc12	> 200	30.2 µM	–
CC(Cl)CN1COc2c3c(c4ccccc4c2C1)CN(CC(C)Cl)CO3 (stereo not given)	> 91.2	27.5 µM	–
Cc1ccc(NC(=O)CCC(=O)C2CC(=O)CC/C2=N\NC(=O)c2cc3ccccc3cc2O)cc1C (stereo not given)	> 363	12.9 µM	–
Cc1ccc(N(C(=O)CC(=O)N2N=C(c3ccccc3)C(N=Nc3ccc([N+](=O)[O-])cc3)C2=O)C(=O)c2ccc(Cl)cc2)cc1 (stereo not given)	> 11.5	9.12 µM	–
O=C1CSC(c2ccc(Cl)cc2)N1c1ccc(Oc2ccc(Cl)cc2)c(Cl)c1 (stereo not given)	> 200	24 µM	–
CS(=O)(=O)NNS(=O)(=O)c1ccc(F)cc1	> 251	> 251 µM	–
Clc1nc(Cl)nc(N2CCCc3ccccc32)n1	> 200	3.89 µM	–
O=C(O)c1cc2c(cc1CC(Cc1ccc3c(c1)CCC3)C(=O)O)CCC2 (stereo not given)	> 200	105 µM	–
CN(N)C(=O)NCCCl	> 200	> 200 µM	–

Structure (SMILES)	EC50 [µM]	IC50	outcome
O=C(Cc1ccc(Cl)cc1)NC(NC(=O)Cc1ccc(Cl)cc1)C(Cl)(Cl)Cl	> 200	> 200 µM	–
O=C(OCc1ccccc1)N1N=NC2C3CC(OCc4ccccc4)(OCc4ccccc4)C(O3)C21 (stereo not given)	> 10.7	> 10.7 µM	–
COC(=O)C1(C(=O)OC)CC(=O)c2cc3c(cc2-c2c(cc(OC)c(OC)c2OC)C1)OCO3	> 28.8	> 28.8 µM	–
CC(=O)Oc1ccc(-c2oc3c([C@H]4C=C(C)CC(c5ccc(OC(C)=O)cc5OC(C)=O)[C@@H]4C(=O)c4ccc(OC(C)=O)c(CC=C(C)C)c4O)c(OC(C)=O)cc(O)c3c(=O)c2CC=C(C)C)c(OC(C)=O)c1 (stereo not given in full)	> 5.13	> 5.13 µM	–
O=[N+]([O-])c1ccc(OCn2ncc3ccc([N+](=O)[O-])cc32)cc1	> 200	> 200 µM	–
Cc1cccc(C(C)(C)C)c1NC(=O)CC1C(=O)Nc2ccccc2S1(=O)=O (stereo not given)	> 1.86	> 1.86 µM	–
COCO[C@@H]1C(=O)N(c2ccccc2)[C@@H]1c1ccccc1	> 178	> 178 µM	–
CN[C@@H]1C[C@H]2O[C@@](C)([C@@H]1OC)n1c3ccccc3c3c4c(c5c6ccccc6n2c5c31)C(=O)N[C@@H]4O	> 38.9	0.0309 µM	–
COc1cc(C2C(C#N)=C(N)OC3=C2CCS(=O)(=O)c2ccc(C)cc23)cc(OC)c1OC (stereo not given)	> 200	> 200 µM	–
N/C(=N\N=C\C1CC2C=CC1C2)NO (stereo not given)	–	–	inactive
CC(C)=CCOc1cc(NC(=S)c2ccsc2C)ccc1Cl	0.0417	15.8 µM	–
C/C(CC(=O)Nc1ccc(C)c(C)c1)=N\N(c1ccccc1)c1ccccc1	> 97.7	> 97.7 µM	–
NC(=O)C1CCCN1C(=O)C(Cc1cnc[nH]1)NC(=O)C1CCCC1 (stereo not given)	> 200	> 200 µM	–
COC1(OC)C2(Cl)C3=CCCC=C3C1(Cl)C(Cl)=C2Cl	–	–	inactive
CC(=O)O[C@H]1[C@@H]2CC(C)(C)CC2=C(C=O)C2(C=O)CC12C (stereo not given in full)	> 200	13.5 µM	–
O=c1[nH]nc(Cc2ccccc2)n1CCCl	> 200	> 200 µM	–
Cc1nc(=O)n2c(c1C(=O)Nc1ccc(Cl)cc1)NCCC2	–	–	inactive
CC1(C)OC2C(=O)C=C(COCc3ccccc3)C2O1 (stereo not given)	> 200	28.2 µM and 10 µM	–
COC(=O)c1ccccc1C#CCCCOS(C)(=O)=O	> 200	> 200 µM	–
COc1ccc(N=C/C=C/C(=C/COC(C)=O)OC(C)=O)cc1	> 200	11.5 µM	–
